Laboratory results: article PMC4534193, “Binding of the Lactococcal Drug Dependent Transcriptional Regulator LmrR to Its Ligands and Responsive Promoter Regions” (PLoS ONE, 2015)

Target: T1, LmrR (Lactococcus cremoris, UniProt A2RI36)
T1 construct: gene llmg_0323; LmrR homodimer; untagged protein for the crystal (residues 1–5, 70–75 and 109–116 not modelled)
T1 sequence (A2RI36 1-116): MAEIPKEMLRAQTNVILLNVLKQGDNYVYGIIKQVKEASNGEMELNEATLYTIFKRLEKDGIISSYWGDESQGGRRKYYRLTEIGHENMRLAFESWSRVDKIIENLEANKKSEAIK
Assay: co-crystal structure ([…] Å) and riboflavin fluorescence quenching titration
Assay type: binding

Kd: 0.26 ± 0.08 µM
Structure (SMILES): Cc1cc2nc3c(=O)[nH]c(=O)nc-3n(C[C@H](O)[C@H](O)[C@H](O)CO)c2cc1C [RBF, riboflavin]
